Data set [1] in a line: Salt screen: XRPD of isolated solids after drying at 40° C. and at 40° C./75% RH. Format: physicochemical. The settings on record: for XRPD after drying at 40° C./75% RH: after 40° C. drying, dried at 40° C./75% RH for about 24 h, label = form after 40° C. drying; for XRPD after drying at 40° C.: isolated solids dried at 40° C. for about 24 h, label = wet form. How it is done: To approximately 20 mg of amorphous lyophilized osanetant was added 0.3 mL of solvent for liquid counterion experiments. 0.2 mL of solvent was employed for solid counterion experiments. […] To the stirring mixture was then added 1.05 mol eq. of the appropriate counterion. Where solid counterions were used, the vial which contained the counterion was washed in to the osanetant containing vial with 0.1 mL of the appropriate solvent. Additional solvent was added where necessary. The experiments were thermally cycled as follows: heated from 25 to 40° C. at a rate of 0.1° C./min; 1 h at 40° C.; Cool to 5° C. at a rate of 0.1° C.; 1 h at 5° C.; 40° C. at a rate of 0.1° C./min; […] The crystallization experiments were thermally cycled overnight, then slurries were isolated by centrifugation. XRPD analysis was carried out on any isolated solids or gums. The XRPD plate, and the isolated solids, were then dried at 40° C. for about 24 h, and XRPD analysis was repeated. The XRPD plate was then dried at 40° C./75% RH for about 24 h and XRPD analysis was again repeated. All other samples were allowed to evaporated at ambient temperature and pressure.

Data set [2] is described as follows: Hydration study (stirring in ethanol: water mixtures, XRPD). Format: physicochemical. On the procedure: 20 mg of osanetant p-toluenesulfonic acid Form 1 was stirred in the appropriate ethanol: water mixtures for 24 h at 25° C. Where clear solutions were observed after 1 h at 25° C., 0.5 mL of liquor was removed, and additional solid was added until a slurry was maintained. After 24 h total, the experiments were isolated by centrifugation, and the solids were analyzed by XRPD.
Osanetant benzenesulfonic acid Form 3 (20 mg) was stirred in the appropriate ethanol: water mixtures for 24 h at 25° C. Where clear solutions were observed after 1 h at 25° C., 0.5 mL of liquor was removed from the Aw 0.257 sample, and additional solid was added until a slurry was maintained. After 24 h total, the experiments were isolated by centrifugation, and the solids were analyzed by XRPD.

A short description of data set [3]: Disproportionation study (stirring in water, XRPD, pH of liquor). The class given is physicochemical. The note with it: 10 mg in 1 mL of water, 24 h at 25° C. On the procedure:
After 24 h total, a white slurry was observed and was isolated by centrifugation. The solids were analyzed by XRPD. The pH of the filtered liquor was measured at 5.63. […] After 24 h total, a white slurry was observed and was isolated by centrifugation. The solids were analyzed by XRPD. The pH of the filtered liquor was measured (pH=5.09).

The nature of data set [4]: Comparative studies: 7-day stability. The class given is physicochemical. The note with it: for impurities on 7-day stability: 80° C.; for solid form on 7-day stability: 7 days, elevated temperature where stated. How it is done: Osanetant p-toluenesulfonic acid Form 1, osanetant benzene sulfonic acid Form 3, osanetant naphthalene-2-sulfonic acid Form 3, and osanetant phosphoric acid Form 7 were compared. Osanetant phosphoric acid Form 7 was obtained when preparation of osanetant phosphoric acid Form 4 was repeated and found to be not reproducible, and Form 7 was determined to be a mixture of hydrates).
Thus, osanetant benzene sulfonic acid salt Form 1 and osanetant p-toluene sulfonic acid salt Form 1 were identified as advantageous salts.

Data set [5] can be described thus: Solid form stability observations (scale up / polymorph work: drying, ambient conditions, aqueous media). Format: physicochemical. How it is done:
Two anhydrous forms of the osanetant p-toluenesulfonic acid were synthesized. […] Form 6, described below, was a stable anhydrous form, but hydrated in water and aqueous solvent mixtures.
Advantageously, Form 1 (hydrate) and Form 6 (anhydrous) were stable on drying. Form 1 re-hydrated at room temperature and pressure after KF analysis, when it was heated in an oven to remove the water.
The experiment was cooled to 5° C. at a rate of 0.1° C./min and stirred at 5° C. for 18 h. The slurry was isolated be Buchner filtration: 42.5 mm Ø grade 1 Whatman filter paper; fast Filtration (<30 s); the cake was washed with 1 mL of ethyl acetate; the isolated solids were dried at 40° C. under vacuum for 72 h. […]

Data set [6] in a line: Thermodynamic solubility in water and pH buffers.
A short description of data set [7]: Hygroscopicity / dynamic vapor sorption (DVS). Format: physicochemical. On the procedure:
The osanetant p-toluenesulfonic acid Form 1 solids consisted of aggregated crystals with an undefined morphology. Select peaks which can be used to characterize osanetant p-toluenesulfonic acid Form 1 include one or more of 11.4°2θ±0.2°2θ, 18.0°2θ±0.2°2θ, 19.0°2θ±0.2°2θ, 19.3°2θ±0.2°2θ, 19.8°2θ±0.2°2θ, or 21.1°2θ±0.2°2θ. In some embodiments, osanetant p-toluenesulfonic acid Form 1 is a monohydrate.

Entries after “also recorded” stand apart in the source; their conditions may differ.

Turning to `CC(=O)N(C)C1(c2ccccc2)CCN(CCC[C@]2(c3ccc(Cl)c(Cl)c3)CCCN(C(=O)c3ccccc3)C2)CC1.O=S(=O)(O)c1ccccc1` [osanetant benzenesulfonic acid Form 3, (R)-N-(1-(3-(1-benzoyl-3-(3,4-dichlorophenyl)piperidin-3-yl)propyl)-4-phenylpiperidin-4-yl)-N-methylacetamide benzenesulfonic acid], in data set [1], the “XRPD after drying at 40° C./75% RH” value is listed as “retained; also recorded: stable; also recorded: Form 3” and the “XRPD after drying at 40° C.” value is “Form 3”. In data set [2] (24 h at 25° C., Aw 0.507 and above / high water activity), the “XRPD form after stirring in ethanol: water mixtures” value is reported as “conversion to osanetant benzenesulfonic acid Form 1; also recorded: converted to osanetant benzene sulfonic acid Form 1”. In data set [2] (slurry in ethanol:water 63.6:36.4 % v/v, calc Aw 0.745, 24 h at 25° C.), the XRPD result is listed as “Form 1”. In data set [2] (slurry in ethanol:water 92.9:7.1 % v/v, calc Aw 0.507, 24 h at 25° C.), the XRPD result is given as “Form 1”. For the same compound, the XRPD result in data set [2] (slurry in ethanol:water 98.4:1.6 % v/v, calc Aw 0.257, 24 h at 25° C.) was “Form 3”. For the same compound, in data set [3], the “XRPD form / disproportionation after stirring in water” value is “converted to osanetant benzenesulfonic acid Form 1” and the “pH of the filtered liquor” value is on record as 5.09. The solid chemical stability entry in data set [4] (7-day stability results, overall) is recorded as “good”. For the same compound, in data set [4], the “impurities on 7-day stability” value was “slight increase in impurities; also recorded: lowest impurity increase” and the “solid form on 7-day stability” value is on record as “retained form”. Besides, the “hydration / form conversion in water and aqueous solvent mixtures” value in data set [5] is given as “converted to osanetant benzene sulfonic acid salt form Form 1”. In data set [5] (drying (40° C. under vacuum where stated)), the form on drying entry was “no change”. In data set [6], the “solid form after thermodynamic solubility in pH buffers” value is “converted to Form 1” and the “thermodynamic solubility in pH buffers / buffered systems” value is “low”.
Consider “(R)-N-(1-(3-(1-benzoyl-3-(3,4-dichlorophenyl)piperidin-3-yl)propyl)-4-phenylpiperidin-4-yl)-N-methylacetamide naphthalene-2-sulfonic acid [osanetant naphthalene-2-sulfonic acid Form 3]”, for which, in data set [1], the “XRPD after drying at 40° C./75% RH” value is reported as “retained; also recorded: stable; also recorded: Form 3” and the “XRPD after drying at 40° C.” value was “retained; also recorded: Form 3”. In data set [4], the “impurities on 7-day stability” value is reported as “increase in impurities” and the “solid form on 7-day stability” value is “stable solid form”. Moreover, in data set [7], the “hygroscopicity / water loss on DVS analysis” value was “more hygroscopic”.

The values are drawn from patent US20240336565A1, “SOLID FORMS OF OSANETANT” (Acer Therapeutics, Inc., priority 2021, published 2024).
